Test results: patent publication US11111230B2 (ADLAI NORTYE BIOPHARMA CO., LTD., priority 2017, dated 2021)

Key:
[1] = system: Hela cells; experiment: Activity in Hela cells (interferon-γ induced, kynurenine readout with Ehrlich's reagent); type: cell-based; conditions: Homo sapiens, interferon-γ 50 ng/mL, tryptophan 16 mg/L, 48 hours, absorption at 480 nm
Procedure: Example 1: Study on the Activity of the Compound of the Present Invention in Hela Cells
Hela cells were seeded in 96-well culture plates and incubated at 37° C., 100% relative humidity, 5% CO2 incubator for 24 hours. The compound was dissolved in DMSO and diluted to an appropriate concentration, and then the compound was diluted 100-fold with DMEM medium containing interferon-γ and 10% fetal bovine serum to the final concentration of effect. Aspirate the old medium from the 96-well plate and add 200 μL of each medium containing compound and interferon-γ from the previous step. The content of tryptophan in the medium is 16 mg/L, and the concentration of interferon-γ is 50 ng/mL. The cells were placed in a 37° C., 100% relative humidity, and 5% CO2 incubator for 48 hours, then 140 μL of the cell culture supernatant was mixed with 15 μL of trichloroacetic acid, and placed at 52° C. for 30 min, then centrifuged at room temperature to take the centrifugal supernatant. Mix with an equal volume of Ehrlich's reagent, measure the light absorption at 480 nm, and calculate the IC50 values.

[2] = molecular target: T1, human IDO1 protein (Homo sapiens, UniProt P14902); experiment: Activity in HEK293 cells highly expressing human IDO1 protein; type: cell-based; conditions: HEK293-IDO cells, tryptophan 16 mg/L, 24 hours, absorption at 480 nm; read-out: IC50 (HEK293 cell)
T1 construct: expressed in transfected cells; host or cells: HEK293
T1 sequence (P14902 whole entry): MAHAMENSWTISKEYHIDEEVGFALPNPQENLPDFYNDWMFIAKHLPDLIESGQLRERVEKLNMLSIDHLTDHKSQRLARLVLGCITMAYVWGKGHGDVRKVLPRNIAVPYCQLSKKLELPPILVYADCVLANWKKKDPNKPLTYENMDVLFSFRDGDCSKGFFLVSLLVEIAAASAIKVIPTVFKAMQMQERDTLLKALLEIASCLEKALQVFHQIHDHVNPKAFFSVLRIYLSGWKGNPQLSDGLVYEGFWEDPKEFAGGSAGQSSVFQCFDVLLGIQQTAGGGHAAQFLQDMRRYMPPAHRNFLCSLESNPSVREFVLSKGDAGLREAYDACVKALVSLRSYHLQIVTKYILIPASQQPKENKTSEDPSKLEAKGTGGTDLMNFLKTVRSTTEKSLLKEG
Procedure: Example 2: Study on the Activity of the Present Invention in HEK293 Cells Highly Expressing Human IDO1 Protein
HEK293-IDO cells with high expression of human IDO1 protein were prepared by electrotransformation, and the cells were seeded in 96-well culture plates, and cultured at 37° C., 100% relative humidity, and 5% CO2 incubator for 24 hours. Dissolve in DMSO and dilute to the appropriate concentration, then use DMEM medium containing 10% fetal bovine serum to dilute the candidate 100-fold to the final concentration. Aspirate the old medium from the 96-well plate and add 200 μL of the medium contained in the previous step to each well. The content of tryptophan in the medium is 16 mg/L. The cells were placed in a 37° C., 100% relative humidity, and 5% CO2 incubator for 24 hours. 140 μL of the cell culture supernatant was mixed with 15 μL of trichloroacetic acid and placed at 52° C. for 30 min. Mix with an equal volume of Ehrlich's reagent, measure the light absorption at 480 nm, and calculate the IC50 values.

| Compound | IC50 [1] [µM] | IC50 [2] [µM] |
| --- | --- | --- |
| O=C(Nc1ccc(Cl)cc1)C1COC12CCC(c1ccnc3ccc(F)cc13)CC2 (centres unmarked) [Compound 50, N-(4-chlorophenyl)-7-(6-fluoroquinolin-4-yl)-1-oxaspiro[3.5]nonane-3-carboxamide] | 0.01 to 0.1 | – |
| O=C(Nc1ccc(Cl)nc1)C1CC12CCC(c1ccnc3ccc(F)cc13)CC2 (centres unmarked) [Compound 7, N-(6-chloropyridin-3-yl)-6-(6-fluoroquinolin-4-yl)spiro[2.5]octane-1-carboxamide] | 0.01 to 0.1 | 0.01 to 0.1 |
| Cc1cc2nccc([C@H]3CC[C@@]4(CC3)C[C@H]4C(=O)Nc3ccc(Cl)cc3)c2cc1F (single isomer, unassigned) [Compound 93] | > 0.1 | > 0.1 |
| O=C(Nc1ccc(Cl)cc1)[C@H]1CC12CCC(c1ccnc3ccc(F)cc13)CC2 (single isomer, unassigned) [Compound 10a] | 0.0001 to 0.01 | 0.0001 to 0.01 |
| O=C(Nc1ccc(Cl)cc1)C1CC12CCC(O)(c1ccnc3ccc(F)cc13)CC2 (centres unmarked) [Compound 104, N-(4-chlorophenyl)-6-(6-fluoroquinolin-4-yl)-6-hydroxyspiro[2.5]octane-1-carboxamide] | > 0.1 | > 0.1 |
| O=C(Nc1ccc(Cl)cn1)C1CC12CCC(c1ccnc3ccc(F)cc13)CC2 (centres unmarked) [Compound 8, N-(5-chloropyridin-2-yl)-6-(6-fluoroquinolin-4-yl)spiro[2.5]octane-1-carboxamide] | 0.01 to 0.1 | 0.01 to 0.1 |
| O=C(Nc1ccc(F)cc1)C1CC12CCC(c1ccnc3ccc(F)cc13)CC2 (centres unmarked) [Compound 2, N-(4-fluorophenyl)-6-(6-fluoroquinolin-4-yl)spiro[2.5]octane-1-carboxamide] | 0.01 to 0.1 | 0.01 to 0.1 |
| O=C(Nc1ccc(Cl)c(F)c1)C1CC12CCC(c1ccnc3ccc(F)cc13)CC2 (centres unmarked) [Compound 12, N-(4-chloro-3-fluorophenyl)-6-(6-fluoroquinolin-4-yl)spiro[2.5]octane-1-carboxamide] | 0.01 to 0.1 | 0.01 to 0.1 |
| O=C(Nc1ccc(Cl)cc1)C1CC12CCC(c1ccnc3cc(CO)c(F)cc13)CC2 (centres unmarked) [Compound 114, N-(4-chlorophenyl)-6-(6-fluoro-7-(hydroxymethyl)quinolin-4-yl)spiro[2.5]octane-1-carboxamide] | 0.0001 to 0.01 | 0.01 to 0.1 |
| O=C(NCCc1ccc(Cl)cc1)C1CC12CCC(c1ccnc3ccc(F)cc13)CC2 (centres unmarked) [Compound 4, N-(4-chlorophenethyl)-6-(6-fluoroquinolin-4-yl)spiro[2.5]octane-1-carboxamide] | > 0.1 | > 0.1 |
| Cc1ccc(NC(=O)C2CC23CCC(c2ccnc4cc(C)c(F)cc24)CC3)cc1 (centres unmarked) [Compound 83] | 0.0001 to 0.01 | – |
| Cc1cc2nccc(C3CCC4(CC3)CC4C(=O)Nc3cncc(Cl)c3)c2cc1F (centres unmarked) [Compound 96] | 0.01 to 0.1 | > 0.1 |
| O=C(Nc1ccc(C(F)(F)F)cc1)C1CC12CCC(c1ccnc3ccc(F)cc13)CC2 (centres unmarked) [Compound 5, 6-(6-fluoroquinolin-4-yl)-N-(4-(trifluoromethyl)phenyl)spiro[2.5]octane-1-carboxamide] | > 0.1 | 0.01 to 0.1 |
| CN1CC(C(=O)Nc2ccc(F)cc2)C2(CCC(c3ccnc4ccc(F)cc34)CC2)C1 (centres unmarked) [Compound 88] | > 0.1 | – |
| CC1(C(=O)Nc2ccc(Cl)cc2)CC12CCC(c1ccnc3ccc(F)cc13)CC2 (centres unmarked) [Compound 106, N-(4-chlorophenyl)-6-(6-fluoroquinolin-4-yl)-1-methylspiro[2.5]octane-1-carboxamide] | > 0.1 | > 0.1 |
| Cc1cc2nccc(C3CCC4(CC3)CC4C(=O)Nc3ccc(Br)cc3)c2cc1F (centres unmarked) [Compound 85] | 0.0001 to 0.01 | – |
| Cc1cc2nccc(C3CCC4(CC3)CC4C(=O)Nc3ccc(C(F)(F)F)cc3)c2cc1F (centres unmarked) [Compound 82] | 0.0001 to 0.01 | – |
| O=C(Nc1ccc(Cl)s1)C1CC12CCC(c1ccnc3ccc(F)cc13)CC2 (centres unmarked) [Compound 13, N-(5-chlorothiophen-2-yl)-6-(6-fluoroquinolin-4-yl)spiro[2.5]octane-1-carboxamide] | 0.01 to 0.1 | 0.01 to 0.1 |
| N#Cc1ccc(NS(=O)(=O)C2CC23CCC(c2ccnc4ccc(F)cc24)CC3)cc1 (centres unmarked) [Compound 19] | 0.0001 to 0.01 | – |
| Cc1cc2nccc(C3CCC4(CC3)CC4C(=O)Nc3ccc(Cl)nc3)c2cc1F (centres unmarked) [Compound 95, N-(6-chloropyridin-3-yl)-6-(6-fluoro-7-methylquinolin-4-yl)spiro[2.5]octane-1-carboxamide] | 0.0001 to 0.01 | 0.01 to 0.1 |
| O=S(=O)(Nc1ccc(C(F)(F)F)cc1)C1CC12CCC(c1ccnc3ccc(F)cc13)CC2 (centres unmarked) [Compound 16] | 0.0001 to 0.01 | – |
| CN1CC(C(=O)Nc2ccc(C#N)cc2)C2(CCC(c3ccnc4ccc(F)cc34)CC2)C1 (centres unmarked) [Compound 91] | > 0.1 | – |

| Compound | IC50 [1] [µM] | IC50 [2] [µM] |
| --- | --- | --- |
| COC(=O)COc1ccc(NC(=O)C2CC23CCC(c2ccnc4cc(C)c(F)cc24)CC3)cc1 (centres unmarked) [Compound 111, Methyl 2-(4-(6-(6-fluoro-7-methylquinolin-4-yl)spiro[2.5]octane-1-carboxamido)phenoxy)acetate] | > 0.1 | > 0.1 |
| O=C(Nc1ccc(Cl)cc1)C1CC12CCC(c1ccnc3ccc(F)cc13)CC2 (centres unmarked) [Compound 1, N-(4-chlorophenyl)-6-(6-fluoroquinolin-4-yl)spiro[2.5]octane-1-carboxamide] | 0.0001 to 0.01 | 0.01 to 0.1 |
| COc1cc2nccc([C@H]3CC[C@@]4(CC3)C[C@@H]4C(=O)Nc3ccc(Cl)cc3)c2cc1F (single isomer, unassigned) [Compound 108] | 0.0001 to 0.01 | 0.0001 to 0.01 |
| Cc1cc2nccc(C3CCC4(CC3)CC4C(=O)Nc3ccc(F)cc3)c2cc1F (centres unmarked) [Compound 80, 6-(6-fluoro-7-methylquinolin-4-yl)-N-(4-fluorophenyl)spiro[2.5]octane-1-carboxamide] | 0.0001 to 0.01 | – |
| O=C(Nc1ccc(Cl)cc1)C1CC12CCC(c1ccnc3cc(F)c(F)cc13)CC2 (centres unmarked) [Compound 100, N-(4-chlorophenyl)-6-(6,7-difluoroquinolin-4-yl)spiro[2.5]octane-1-carboxamide] | 0.0001 to 0.01 | 0.01 to 0.1 |
| O=C(Nc1ccc(C(F)(F)F)cc1)C1COC12CCC(c1ccnc3ccc(F)cc13)CC2 (centres unmarked) [Compound 52] | 0.01 to 0.1 | – |
| O=S(=O)(Nc1ccc(Cl)cc1)C1CC12CCC(c1ccnc3ccc(F)cc13)CC2 (centres unmarked) [Compound 14, N-(4-chlorophenyl)-6-(6-fluoroquinolin-4-yl)spiro[2.5]octane-1-sulfonamide] | 0.0001 to 0.01 | – |
| CN1CC(C(=O)Nc2ccc(Cl)cc2)C2(CCC(c3ccnc4ccc(F)cc34)CC2)C1 (centres unmarked) [Compound 87, N-(4-chlorophenyl)-8-(6-fluoroquinolin-4-yl)-2-methyl-2-azaspiro[4.5]decane-4-carboxamide] | > 0.1 | – |
| Cc1cc2nccc(C3CCC4(CC3)CC4C(=O)Nc3ccc(C#N)cc3)c2cc1F (centres unmarked) [Compound 81] | 0.0001 to 0.01 | – |
| CN1CC(C(=O)Nc2ccc(Br)cc2)C2(CCC(c3ccnc4ccc(F)cc34)CC2)C1 (centres unmarked) [Compound 90] | > 0.1 | – |
| Cc1ccc(NC(=O)N2CC23CCC(c2ccnc4ccc(F)cc24)CC3)cc1 (centres unmarked) [Compound 24] | > 0.1 | – |
| COCc1cc2nccc(C3CCC4(CC3)CC4C(=O)Nc3ccc(Cl)cc3)c2cc1F (centres unmarked) [Compound 115, N-(4-chlorophenyl)-6-(6-fluoro-7-(methoxymethyl)quinolin-4-yl)spiro[2.5]octane-1-carb oxamide] | 0.0001 to 0.01 | – |
| O=S(=O)(Nc1ccc(F)cc1)C1CC12CCC(c1ccnc3ccc(F)cc13)CC2 (centres unmarked) [Compound 15] | 0.0001 to 0.01 | – |
| COc1ccc(NC(=O)C2CC23CCC(c2ccnc4cc(C)c(F)cc24)CC3)cc1 (centres unmarked) [Compound 84] | 0.0001 to 0.01 | – |
| COc1ccc(NS(=O)(=O)C2CC23CCC(c2ccnc4ccc(F)cc24)CC3)cc1 (centres unmarked) [Compound 17] | 0.0001 to 0.01 | – |
| N#Cc1ccc(NC(=O)C2COC23CCC(c2ccnc4ccc(F)cc24)CC3)cc1 (centres unmarked) [Compound 55] | 0.01 to 0.1 | – |
| O=C(Nc1ccc(F)cc1)C1COC12CCC(c1ccnc3ccc(F)cc13)CC2 (centres unmarked) [Compound 51] | 0.01 to 0.1 | – |
| Cc1ccc(NS(=O)(=O)C2CC23CCC(c2ccnc4ccc(F)cc24)CC3)cc1 (centres unmarked) [Compound 18] | 0.0001 to 0.01 | – |
| Cc1ccc(NC(=O)C2COC23CCC(c2ccnc4ccc(F)cc24)CC3)cc1 (centres unmarked) [Compound 54] | 0.01 to 0.1 | – |
| Cc1cc2nccc(C3CCC4(CC3)CC4C(=O)Nc3ccc(Cl)c(F)c3)c2cc1F (centres unmarked) [Compound 86] | 0.0001 to 0.01 | – |
| COc1ccc(NC(=O)C2COC23CCC(c2ccnc4ccc(F)cc24)CC3)cc1 (centres unmarked) [Compound 53] | 0.01 to 0.1 | – |
| CN1CC(C(=O)Nc2ccc(C(F)(F)F)cc2)C2(CCC(c3ccnc4ccc(F)cc34)CC2)C1 (centres unmarked) [Compound 89] | > 0.1 | – |
